Source: EP2873675A1, “Peptide-based peroxidase inhibitors and methods of using same” (The Medical College of Wisconsin, Inc., priority 2013, dated 2015)
Entries after “also recorded” stand apart in the source; their conditions may differ. Residues, ends and D or L forms follow the SMILES beside them.

Tests used:
MPO [1] = experiment: MPO-mediated LDL malondialdehyde (MDA) formation; format: biochemical; details: increasing concentrations; LDL 0.5 mg/mL, MPO 50 nM, H2O2 50 µM, NO2 50 µM
Method: MPO-mediated LDL Malondialdehyde (MDA) Formation: Reaction mixtures contained LDL (0.5 mg/mL), NaNO2 (50 µM), H2O2 (50 µM), MPO (50 nM) and increasing concentrations of KYC in a phosphate buffer (100 mM, pH 7.4) containing DTPA (100 µM). After incubation at 37 °C for 4 h, the reactions were stopped by addition of catalase (2,000 units/mL). The formation of MDA was determined according to a published procedure. Briefly, incubation mixtures (containing 25 mM BHT) were adjusted to pH 1.5 and incubated at 60 °C for 80 min to hydrolyze the Schiff Bases formed from MDA and protein. The samples were mixed with 3-fold volume of N-methyl-2-phenylindole (13.4 mM in acetonitrile/methanol (3:1)). After centrifugation (13000 g, 5 min) 330 µL of the supernatants were mixed with 57.5 µL of concentrated HCl and incubated at 45 °C for another 60 min. Finally, after centrifugation (13000 g, 5 min), total MDA in the samples was determined from the absorbance at 586 nm using a UV-Vis spectrophotometer (Agilent Model 8453).

NADPH oxidase (NOX) = experiment: PMA-stimulated HL-60 cell superoxide formation (SOD-inhibitable cytochrome C reduction); format: cell-based, human; details: cytochrome C assay
Method: PMA-induced Superoxide Anion Formation. HL-60 cells were cultured in RPMI 1640 medium containing 10 % FCS (passage 20-50). HL-60 cells were harvested by centrifugation (1000 rpm, 10 min), washed 2X with phosphate buffer (10 mM, pH 7.4) with NaCl (138 mM), KCl (2.67 mM), CaCl2 (0.901 mM), MgCl2 (0.493 mM) and glucose (1mg/ml) to remove culture medium. The HL-60 cells (6 x10^6/0.5ml) were re-suspended in DPBS. After stimulation with PMA (10 µM), the HL-60 cells were incubated with cytochrome C (40 µM) with or without superoxide dismutase at 37°C for 30 min. The reaction was stopped by centrifugation. Cytochrome C reduction was measured at 550 nm on a UV-Vis spectrophotometer (Agilent, Model 8453).
PMA-stimulated HL-60 cell O2^•- Formation: HL-60 cells were harvested by centrifugation (1000 rpm, 10 min), washed twice with DPBS with glucose to remove culture medium. The HL-60 cells (1.2 x10^7/ml) were re-suspended in DPBS with glucose. After stimulation with PMA (10 µM), the HL-60 cells were incubated with cytochrome C (40 µM) with or without superoxide dismutase (500 units/mL) at 37 °C for 10 min and then the HL-60 cells were removed by centrifugation. Cytochrome C reduction in supernatants was measured at 550 nm using a UV-Vis spectrophotometer (Agilent, Model 8453).

[2] = tested on: facialis arteries from non-treated SCD mice; experiment: Vasodilatation of facialis arteries from untreated SCD mice, treated ex vivo in the vessel bath; details: 1.5 µg/ml added to vessel bath, 20 min
Method: For vessels treated with KYC (ex-vivo): Using untreated SCD mice, the vessels were isolated/ cannulated the same as for the mice treated with KYC in vivo. After the control dose-response curve using acetylcholine (ACh, 10^-7 - 10^-4 M) and subsequent washing, the vessels were incubated with KYC 1.5 µg/ml for 20 minutes, pre-constricted, and exposed to acetylcholine (ACh, 10^-7 - 10^-4 M). Vasodilation to papaverine (2.0X10^-4 M) was determined after all treatments to ensure smooth muscle viability. Vasodilation was calculated as a percent of maximal vessel diameter change.

SCD mice = experiment: WBC counts in SCD mice (cytometry); format: in vivo; details: SCD mice treated for three weeks
Method: MPO improves vascular function in SCD mice. To determine whether inhibiting MPO improves vascular function and/or reduces inflammation in vivo, SCD mice were treated with KYC for three weeks. […] Such physiological and structural changes are consistent with immunofluorescent studies showing that chlorotyrosine and MPO levels are reduced in the aortas of KYC-treated SCD mice compared with non-treated SCD mice (Fig. 13). High WBC counts are indicative of on-going inflammation in SCD and predictive of future vaso-occlusive events. Accordingly, WBC levels were quantified in the SCD mice using standard cytometry assays.

MPO [3] = experiment: MPO-mediated LDL Trp oxidation (Trp intrinsic fluorescence); format: biochemical; details: MPO/H2O2/NO2- system, 30 min, room temperature
Method: MPO-mediated LDL Trp Oxidation: Reaction mixtures containing LDL (0.15 mg/mL), NaNO2 (100 µM), H2O2 (100 µM), MPO (20 nM) and increasing concentrations of KYC in a phosphate buffer (100 mM, pH 7.4) containing DTPA (100 µM) were incubated at room temperature for 30 min. Reactions were stopped by addition of catalase (2,000 units/mL) and the oxidation of Trp in LDL was determined by measuring changes in the intrinsic fluorescence of Trp (Ex 294nm/Em 345 nm) using a LC-50 fluorometer (Perkin Elmer, Waltham MA).

BAEC = experiment: MPO-mediated BAEC injury (cell morphology); format: cell-based, Bovine; details: 20 min
lung cancer mice = experiment: BHT-treated lung cancer mice (BALF activities, tumor number); format: in vivo; details: BHT 300 mg/kg single dose; 0.3 mg/kg/d; after 3 days
Method: Inhibiting MPO decreases PMN degranulation in lung cancer mice. PMNs are considered to play a causal role in initiating tumor formation. Effects of KYC on PMN recruitment and tumor formation in lung cancer mice were determined. Briefly, mice were treated with BHT (single dose: 300 mg/kg) and KYC (0.3 mg/kg/d).

MPO [4] = experiment: MPO-mediated nitration of LDL (dot blot); format: biochemical; details: MPO/H2O2/NaNO2, 37 °C, 4 h
Method: MPO-mediated Nitration of LDL: LDL (0.5 mg/mL) was incubated with MPO (50 nM), H2O2 (50 µM), NaNO2 (50 µM) and increasing concentrations of KYC in phosphate buffer (100 mM, pH 7.4) containing DTPA (100 µM) at 37 °C for 4 h. Reactions were stopped by addition of catalase (2,000 units/mL). Formation of NO2Tyr was assessed by dot blot analysis. Briefly, LDL solutions were mixed with 1% SDS and centrifuged (12000 g, 15 min). Aliquots of supernatants were applied to a nitrocellulose membrane with a dot blot apparatus (Biorad model: Bio-Dot). The levels of NO2Tyr were visualized using a rabbit polyclonal anti-NO2Tyr antibody (EMD, Gibbstown, NJ) and the ECL plus kit from Thermo-Peirce (Rockford, IL).

Compound: CC(=O)N[C@@H](CCCCN)C(=O)N[C@@H](Cc1ccc(O)cc1)C(=O)N[C@@H](CS)C(N)=O [KYC, N-acetyl Lysyltyrosylcysteine amide] (Ac-Lys-Tyr-Cys-NH2)
- MPO-mediated MDA formation in LDL (MPO [1]): dose-dependently inhibited
- O2•- production in PMA-stimulated HL-60 cells (NADPH oxidase (NOX)): neither KYC nor KYC disulfide have any significant effect; also recorded: Neither KYC nor KYC disulfide had any significant effect
- vasodilatation in response to ACh [2]: did not increase vasodilatation
- WBC counts (SCD mice): more than half; also recorded: reduced by half
- MPO-dependent oxidation of Trp residues in LDL (MPO [3]): protected the Trp residues in LDL against MPO-dependent oxidation
- protection of BAEC from MPO-induced injury (morphology) (BAEC; 25 µM, higher MPO (5 µg/ml) or H2O2 (100 µM), data not shown): protected BAEC from even higher concentrations of MPO
- protection of BAEC from MPO-induced injury (morphology) (BAEC; 50 µM, MPO 2.5 µg/ml, H2O2 50 µM): almost the same morphology as cultures that were not exposed to MPO
- MPO activity in BALF (lung cancer mice): significantly decreased
- PMN number in BALF (lung cancer mice): did not reduce
- elastase activity in BALF (lung cancer mice): significantly decreased
- NO2Tyr in LDL (MPO [4]): markedly reduces
